From patent publication US20220251085A1, “CYSTEINE BINDING COMPOSITIONS AND METHODS OF USE THEREOF” (University of Virginia Patent Foundation, priority 2019, published 2022)

Experiments:
[1] = HPLC assay for profiling solution reactivity and stability of purine fragments (probes) with amino acid mimetics; format: physicochemical; settings: for reaction with butanethiol: cysteine mimetic
Description: HPLC assay for profiling solution reactivity and stability of purine fragments: The following reagents were prepared and stored on ice prior to use. 0.1 molar (M) solution of caffeine in acetonitrile, 1.0 M solution of amino acid mimetic (butanethiol—cysteine mimetic; n-butylamine—lysine mimetic; p-cresol—tyrosine mimetic; propionamide-asparagine/glutamine mimetic; butyric acid—aspartic/glutamic acid mimetic), tetramethylguanidine (TMG), 1 M acetic acid (HOAc) in acetonitrile (ACN) and 10 mM solution of purine fragment in ACN mixture. 500 μL of fragment solution were transferred to a dram vial on ice. To the mixture, 5.5 μL of TMG and 5.5 μL of respective amino acid mimetic were added and solutions were stirred on ice for 6 h. To monitor reactivity, 50 μL aliquots were removed at indicated time points and quenched with 10 μL of a 1:1 mixture of caffeine and HOAc. Samples were injected (1 μL) and analyzed by reverse-phase HPLC on a Shimadzu 1100 Series spectrometer (Shimadzu Corporation, Kyoto, Japan) with UV detection at 254 nm. Reaction progress was evaluated by monitoring consumption of starting material (purine fragment) normalized to caffeine standard. Chromatographic separation was performed using a Phenomenex Kinetex C18 column (2.6 μm, 50×4.6 mm; Phenomenex, Torrance, Calif., United States of America). Mobile phases A and B were composed of H2O+0.1% HOAc and ACN+0.1% HOAc, respectively. […] All purine fragment peak AUCs used for calculations were normalized to caffeine standard AUCs at respective time points to account for run-to-run variations by HPLC. The amount of purine fragment consumed (% starting material) was plotted as a function of time.
Discussion: An HPLC assay for determining the reactivity of the purine-based probes with mimetics of amino acid residues was performed. […] Reaction progress was monitored by monitoring the disappearance of starting material and appearance of product via HPLC.

[2] = system: proteomes of DM93, Hela, A549, HEK293T, and Jurkat cells; assay: Quantitative chemical proteomics (LC-MS) of Pu-1 and Pu-2 modified proteins; format: cell-based, HUMAN
Description: Cells were grown at 37° C. in 5% CO2 until 90% confluent. Once confluent cells were washed with serum free media and treated with purine probes (Pu-1, Pu-2) at a final concentration of 25 μM for 4 hours. Cells were then scraped and washed 3× with cold PBS and lysed in PBS+protease inhibitor. Lysates were spun at 100,000×g for 45 minutes. Purine probe-modified proteins in soluble fractions were coupled to desthiobiotin-azide using copper-catalyzed azide-alkyne cycloaddition (CuAAC; 1 hour, room temperature), probe-modified proteins digested into peptides using trypsin protease, probe-modified peptides enriched by avidin affinity chromatography, and subjected to LC-MS quantitative chemical proteomics as previously described.^15 The following cell lines were used for analysis: DM93, Hela, A549, HEK293T, and Jurkat. […]
Chemical proteomics performed as described in Example 9 determined several protein modification sites targeted by Pu-1 and/or Pu-2. […]

Structure (SMILES)	reaction with butanethiol ([1]; on ice 6 h)	Number of Unique Modified Residues ([2]; Arginine (R))	Percentage of Modified Residues ([2]; Arginine (R)) [%]	Number of Unique Modified Residues ([2]; Asparagine (N))	Percentage of Modified Residues ([2]; Asparagine (N)) [%]	Number of Unique Modified Residues ([2]; Aspartic Acid (D))	Percentage of Modified Residues ([2]; Aspartic Acid (D)) [%]	Number of Unique Modified Residues ([2]; Cysteine (C), Byonic score>300)	Percentage of Modified Residues ([2]; Cysteine (C), Byonic score>300) [%]	Number of Unique Modified Residues ([2]; Glutamic Acid (E))	Percentage of Modified Residues ([2]; Glutamic Acid (E)) [%]	Number of Unique Modified Residues ([2]; Glutamine (Q))	Percentage of Modified Residues ([2]; Glutamine (Q)) [%]	Number of Unique Modified Residues ([2]; Histidine (H))	Percentage of Modified Residues ([2]; Histidine (H)) [%]	Number of Unique Modified Residues ([2]; Lysine (K))	Percentage of Modified Residues ([2]; Lysine (K)) [%]	Number of Unique Modified Residues ([2]; Methionine (M))	Percentage of Modified Residues ([2]; Methionine (M)) [%]	Number of Unique Modified Residues ([2]; Serine (S))	also measured
C#CCn1cnc2nc(Cl)nc(Cl)c21 [Pu-1, 2,6-Dichloro-7-(prop-2-yn-1-yl)-7H-purine]	react with butanethiol	2	0.84	0	0	9	3.8	196	82	12	5.0	3	1.3	1	0.42	4	1.7	2	0.84	1	solution-based reactivity with amino acid mimetics ([1]; HPLC, % starting material consumed, on ice 6 h): modifies cysteine (Cys) and tyrosine (Tyr) amino acid mimetics; reaction kinetics compared to N9 counterparts ([1]; butanethiol, versus Pu-2, Pu-4, Pu-10): accelerated reaction kinetics; reactivity towards nucleophilic attack, N7 versus N9 tautomer ([1]; compared with Pu-2): more reactive towards nucleophilic attack; Percentage of Modified Residues ([2]; Serine (S)): 0.42%; Number of Unique Modified Residues ([2]; Threonine (T)): 2; Percentage of Modified Residues ([2]; Threonine (T)): 0.84%; Number of Unique Modified Residues ([2]; Tryptophan (W)): 1; Percentage of Modified Residues ([2]; Tryptophan (W)): 0.42%; Number of Unique Modified Residues ([2]; Tyrosine (Y)): 6; Percentage of Modified Residues ([2]; Tyrosine (Y)): 2.5%
C#CCn1cnc2c(Cl)nc(Cl)nc21 [Pu-2, 2,6-Dichloro-9-(prop-2-yn-1-yl)-9H-purine]	react with butanethiol	19	1.6	0	0	44	3.7	952	80	68	5.7	39	3.3	12	1.0	24	2.0	7	0.59	5	reactivity with lysine mimetic ([1]; n-butylamine, on ice 6 h): mild lysine (Lys) reactivity; Percentage of Modified Residues ([2]; Serine (S)): 0.42%; Number of Unique Modified Residues ([2]; Threonine (T)): 6; Percentage of Modified Residues ([2]; Threonine (T)): 0.50%; Number of Unique Modified Residues ([2]; Tryptophan (W)): 3; Percentage of Modified Residues ([2]; Tryptophan (W)): 0.25%; Number of Unique Modified Residues ([2]; Tyrosine (Y)): 17; Percentage of Modified Residues ([2]; Tyrosine (Y)): 21.4%
